Results reported in patent US12590126B2, “Compounds for selective disruption of protein-protein interactions” (SyntheX, Inc., priority 2017, dated 2026).
pIC50: −log10 of the molar value. “Also recorded” adds a separate entry of the source. Where two headings read alike, the source gives them in different places. One block for each molecule: values may come before it. Where a SMILES comes first, the peptide text is derived from it. [ ]: non-standard residue; d: D form. dNle = CCCC[C@@H](N)C(=O)O; Ahx = NCCCCCC(=O)O; βAla = NCCC(=O)O

What was measured:
SSP-25 cells = assay: xCELLigence cell death assay in SSP-25 cells (cellular assay for RAD51 inhibition); format: cell-based; conditions: concentration gradient added at 20 hour mark, only values with R^>0.85 shown
Protocol: The efficacy of the peptides described herein was assessed by their ability to cause death in SSP-25 cells, which have amplification of RAD51 and are dependent on its activity.
First, 5,000 SSP25 cells were plated, and adherence and growth was measured for 20 hours using live measurements of current impedance through the plate using the xCELLigence™ instrument. At the 20 hour mark, a concentration gradient of each compound or a PBS control was added to the SSP-25 cells, which were cultured in […] RMPI media with 10% FBS. […] Only values with confidence and R^>0.85 are shown.

fresh human RBCs = format: cell-based
Protocol: To assess the nonspecific lytic properties of each compounds disclosed herein, each mentioned compound was tested for hemolytic properties against fresh human RBCs. Briefly, donor blood was drawn into a K2EDTA anticoagulant tube from multiple O+ donors. The blood was washed 3 times in PBS. RBCs were diluted to 2% in PBS and compounds were added at various concentrations. Samples were incubated at 37 C for 1 hr, then centrifuged at 2200 rpm for 5 min. Supernatants were measured for absorbance at 450 nm or 405 nm. The percentage hemolysis was calculated as lysis relative to 1% Triton X-100 incubation.

A549 cells [1] = assay: A549 cell growth/death, xCELLigence and microscopy; format: cell-based; conditions: xCELLigence, concentration gradient
Protocol: To assess the growth inhibitory properties of compounds disclosed herein, 10 μM of Compound 1 was tested against a PBS mock treatment for growth of A549 cells using microscopy at the indicated timepoints shown in the top right corner of each panel of FIG. 2. […] First, 5,000 A549 cells were plated, and adherence and growth was measured for 20 hours using live measurements of current impedance through the plate using the xCELLigence™ instrument. At the […] mark, a concentration gradient of Compound 1 or a PBS control was added to the A549 cells, which were cultured in 100 μL DMEM media with 10% FBS.

SSP25 cells [2] = assay: Selective killing, Cytation imaging of SSP25 cells; format: cell-based; conditions: 10 μM
Protocol: To assess the specificity of compounds disclosed herein in targeting cancers with overexpression of RAD51, Compound 1 was tested against primary fibroblasts and SSP25 cells (cholangiocarcinoma cell line) (FIG. 5). First, 5,000 cells were incubated in 96-well culture plates overnight. Cells were grown in DMEM or RPMI, respectively, with 10% FBS, and […] was added to a concentration of 10 μM and imaging commenced using a Cytation™ instrument using approximately 5 minute time points. DAPI was used to visualize the nuclei and mitotracker-red was used to observe mitochondria. […] Furthermore, cell morphology was affected within 5 minutes of imaging, and the macrobubble phenotype was stable for further periods of time.

SSP25 cells [3] = assay: xCELLigence cell death assay with intracellular calcium chelators; format: cell-based; conditions: relative to compound alone
Protocol: To investigate the hypothesis that peptide treatment of cells causes cell death via increases in intracellular free calcium levels, Compound 1 alone and in combination with two different intracellular calcium chelators (1,2-Bis(2-aminophenoxy)ethane-N,N,N′,N′-tetraacetic acid tetrakis(acetoxymethyl ester) aka “BAPTA-AM”, and ammoniated ruthenium oxychloride aka “ruthenium red”) was tested in an xCELLigence™ cell death assay as in Example 1. The intracellular calcium chelators alone were also evaluated on the cells.

A549 cells [4] = assay: Intracellular calcium imaging with Fluo-2-AM; format: cell-based; conditions: 30 μM compound, pre-incubation with 2.5 μM Fluo-2-AM
Source text: Timestamps for the duration of the experiment are indicated in each panel.

A549 xenograft = A549 xenograft in athymic nu/nu mice, Compound 1 IT and IP; format: in vivo; conditions: for tumor volume / size, intra-tumoral dosing: 50 microliters of 10 or 20 mg/ml IT, day 0, day 3 and every other day
Protocol: Female athymic nu/nu mice (6-8 weeks old) were purchased from Simonsen labs (n=12) and were housed at the Murigenics vivarium in Vallejo. The mice were acclimated to the setting of the vivarium for 5 days and maintained on a standard chow diet; 12:12 dark/light cycle; and group housed (3 mice per cage) in HEPA-filtered cages. After acclimation, each mouse was injected subcutaneously (lower left abdominal flank) with 5×10^6 A549 (ATCC: CCL-185) cells mixed with 1:1 (v/v) with Matrigel solution. When the tumors reached a volume of—100 mm3, the mice were divided into separate treatment groups for the desired treatments. Experiments using both intra-tumoral (IT) and intraperitoneal (IP) administration were performed and the data are reported in FIGS. 10 and 11.
Mice prepared as described above were divided into 4 groups: • Group 1: received an intra-tumoral injection of 50 microliters of Phosphate Buffered Saline (mock) (n=3) • Group 2: received an intra-tumoral injection of 50 microliters of 10 mg/ml Compound 1 in Phosphate Buffered Saline (n=3) • Group 3: received an intra-tumoral injection of 50 microliters of 20 mg/ml Compound 1 in Phosphate Buffered Saline (n=3)
The 50 microliter injections were carried out with a (30 g needle). The injections were administered on day zero and then again on day 3, and every other day. The length (L) and the width (W) of the tumor mass was measured with a Vernier caliper and the tumor volume (V) was calculated as V=(L×WA2)/2. The relative tumor volume of each tumor mass on each measurement day was normalized against the initial volume of the same mass on day zero right before initiation of injections. […]
The injections were carried out with a 30 g needle. […] The length (L) and the width (W) of the tumor mass was measured with a Vernier caliper and the tumor volume (V) was calculated as V=(L×WA2)/2. […]

SSP25 cells [5] = assay: xCELLigence cell death assay with necroptosis or apoptosis inhibitor; format: cell-based; conditions: for cell death with added necroptosis inhibitor Necrostatin: 40 μM compound + 50 μM Necrostatin; for cell death with added apoptosis inhibitor z-VAD: 40 μM compound + 100 μM z-VAD
Protocol: Further experiments were performed to elucidate the method of cell death induced by Compound 1. In one experiment, xCELLIGENCE cell death assays as in Examples 1 and 5 were performed, treating with either a necroptosis inhibitor (Necrostatin, 50 μM) alone or in combination with Compound 1 (40 μM). In another experiment, xCELLIGENCE cell death assays as in Examples 1 and 5 were performed, treating with either a apoptosis inhibitor (z-VAD, 100 μM) alone or in combination with Compound 1 (40 μM).

[6] = Mouse pharmacokinetics, IV and IP dosing; format: in vivo, mice
Protocol: The pharmocokinetic parameters in mice by both intravenous (IV) and intraperitoneal (IP) dosing, as well as the serum and microsome stability for each of compound 22, 23, 24, and 25 was determined. Bioanalytical methods were developed for each compound using an LC-MS/MS method with LLOQ>100 ng/ml.
For in-vivo PK work, at least 3 mice were used per timepoint. For each compound, the animals were injected either IV or IP with the compound. IV injections used 1 mg/kg, and IP injections were at 15 mg/kg. Blood was collected at the indicated timepoints and analyzed according to the bioanalytical method developed.

in vitro [7] = conditions: mouse, serum
Protocol: Serum stability data was obtained using the appropriate animal serum, each incubated with the compound for up to two hours at 37 C.

in vitro [8] = conditions: human, microsomes
Protocol: (§1) For HLM and MLM stability studies, each compound was incubated with the liver microsome mixture for up to an hour at 37 C in the presence of NADPH.
(§2) After the incubations, the reactions were stopped and the compounds were analyzed according to the method developed for each.

in vitro [9] = conditions: mouse, microsomes
Protocol: as §1, §2

Molecule: Ac-lmrsvrlrvGlrkrrrrrrr-NH2 (Ac-[dL][dM][dR][dS][dV][dR][dL][dR][dV]G[dL][dR][dK][dR][dR][dR][dR][dR][dR][dR]-NH2) [Compound 1]
- pIC50 (SSP-25 cells): 5.62
- % Hemolysis (250 uM) (fresh human RBCs): 3%
- effect on growth / cell death of A549 cells (A549 cells [1]): dose-dependent effect on the growth of A549 cells displaying acute cell death kinetics
- time until cell morphology was affected (SSP25 cells [2]): ≤ 5 minutes
- cell morphology / cell death in SSP25 cells (SSP25 cells [2]; approx. 5 minute time points): drastically affected in SSP25 cells
- cell death with added calcium chelator BAPTA-AM (SSP25 cells [3]; 10 μM compound + 10 μM BAPTA-AM): rescues cell death relative to compound alone; also recorded: addition of BAPTA-AM rescues cell death
- cell death with added calcium chelator ruthenium red (SSP25 cells [3]; 10 μM compound + 40 μM Ruthenium red): rescues cell death relative to compound alone; also recorded: addition of ruthenium red rescues cell death
- intracellular calcium (Fluo-2 dye) (A549 cells [4]): accumulation of intracellular calcium
- tumor volume / size, intra-tumoral dosing (A549 xenograft): measurable decreases in tumor size as early as day 3
- tumor volume / size, intra-tumoral dosing (A549 xenograft; listed as compound 1): significant effects on tumor volume after only a few days of treatment
- tumor size, intra-peritoneal dosing (A549 xenograft; 125 microliters of 3 mg/ml IP, single dose on day seven): measurable decreases in tumor size as early as 3 days after injection (day 10)
- cell death with added necroptosis inhibitor Necrostatin (SSP25 cells [5]): addition of the inhibitor has no effect on the activity
- cell death with added necroptosis inhibitor Necrostatin (SSP25 cells [5]; listed as compound 1): does not cause cell death through necroptosis or apoptosis
- cell death with added apoptosis inhibitor z-VAD (SSP25 cells [5]): addition of the inhibitor has no effect on the activity
- cell death with added apoptosis inhibitor z-VAD (SSP25 cells [5]; listed as compound 1): does not cause cell death through necroptosis or apoptosis

- AUC Extr ([6]; 1 mg/kg IV): 28.8%
- Vss ([6]; 15 mg/kg IP): 2.95 L/kg
- AUC(0-inf) ([6]; in vivo, 1 mg/kg IV): 528 ng·h/mL
- AUC(0-t) ([6]; in vivo, 1 mg/kg IV): 375 ng·h/mL
- C0 ([6]; in vivo, 1 mg/kg IV): 683 ng/mL
- MRT inf ([6]; in vivo, 1 mg/kg IV): 0.779 h
- clearance ([6]; in vivo, 1 mg/kg IV): 31.7 mL/min/kg
- AUC(0-inf) ([6]; in vivo, 15 mg/kg IP): 1010 ng·h/mL
- MRT inf ([6]; in vivo, 15 mg/kg IP): 17.9 h
- half-life ([6]; in vivo, ip, 15 mg/kg, 15 mg/kg IP, read-out: t½ (converted)): 1.89 h
- half-life ([6]; in vivo, ip, 15 mg/kg, IP (15 mg/kg), read-out: Half-life Mouse IP): 1.88 h
- Vd ([6]; in vivo, iv, 1 mg/kg, 1 mg/kg IV, read-out: Vss): 1.48 L/kg
- Vd ([6]; in vivo, iv, 1 mg/kg, 1 mg/kg IV, read-out: Vz): 1.51 L/kg
- half-life ([6]; in vivo, iv, 1 mg/kg, 1 mg/kg IV, read-out: t½ (converted)): 0.549 h
- half-life ([6]; in vivo, iv, 1 mg/kg, IV (1 mg/kg), read-out: Half-life Mouse IV): 0.549 h
- half-life (in vitro [7]): 4.62 h
- half-life (in vitro [8]): 0.947 h
- half-life (in vitro [9]): 1.93 h
Molecule: CCCC[C@@H](NC(=O)[C@@H](CC(C)C)NC(C)=O)C(=O)N[C@H](CCCNC(=N)N)C(=O)N[C@H](C)C(=O)N[C@@H](C(=O)N[C@H](CCCNC(=N)N)C(=O)N[C@H](CC(C)C)C(=O)N[C@H](CCCNC(=N)N)C(=O)N[C@@H](C(=O)NCCC(=O)N[C@H](CC(C)C)C(=O)N[C@H](CCCNC(=N)N)C(=O)NCCCCCC(=O)N[C@H](CCCNC(=N)N)C(=O)NCCCCCC(=O)N[C@H](CCCNC(=N)N)C(=O)NCCCCCC(=O)N[C@H](CCCNC(=N)N)C(=O)NCCCCCC(=O)N[C@H](CCCNC(=N)N)C(=O)NCCCCCC(=O)N[C@H](CCCNC(=N)N)C(=O)NCCCCCC(=O)N[C@H](Cc1ccc(O)cc1)C(N)=O)C(C)C)C(C)C [Compound 24, Ac-l{d-norLeucine}ravrlrv[beta-ALA]lr(Ahx)r(Ahx)r(Ahx)r(Ahx)r(Ahx)r(Ahx)y-NH2] (Ac-[dL][dNle][dR][dA][dV][dR][dL][dR][dV][βAla][dL][dR][Ahx][dR][Ahx][dR][Ahx][dR][Ahx][dR][Ahx][dR][Ahx][dY]-NH2)
- pIC50 (SSP-25 cells): 5.21
- % Hemolysis (250 uM) (fresh human RBCs; red cells of human, 1 h, 250): 3%
